From patent publication US12295959B2 (priority 2021, dated 2025)

Columns and labels:
mice = assay: Head-twitch response (HTR); type: in vivo
Description: Head twitch response (HTR) experiments. C57BL/6J Mice (9-10 weeks old) are housed following an IACUC approved protocol. The mice are habituated in the test cage for at least 30 min, injected intraperitoneally with compound (injection volume 5 ml/kg), returned to the empty test cage, and filmed for 20 minutes. Each video is scored for the number of head-twitches by a trained observer blinded to treatment condition.

5HT2A sensor = type: cell-based

| SMILES | head-twitch response (HTR) (mice) | activation of the 5HT2A sensor assay in agonist mode (5HT2A sensor) |
| --- | --- | --- |
| COc1ccc2[nH]cc(CCN(C)C)c2c1 [Compound 5-MeO-DMT, 5-MeO-DMT] | robust, dose-dependent head-twitch response | activate |
| CCN(CC)C(=O)[C@@H]1C=C2c3cccc4[nH]cc(c34)C[C@H]2N(C)C1 [LSD] |  | activate |
| COc1ccc2c(CCN(C)C)c[nH]c2c1 [Compound 6-MeO-DMT, 6-MeO-DMT] | does not produce a HTR | do not activate |
| CN(C)CCc1c[nH]c2ccccc12 [DMT, N,N-dimethyltryptamine] |  | activate |
| O=C(c1ccc(F)cc1)C1CCN(CCn2c(=O)[nH]c3ccccc3c2=O)CC1 [Ketanserin] |  | do not activate |
| CCN(CC)C(=O)[C@@H]1C=C2c3cccc4[nH]c(Br)c(c34)C[C@H]2N(C)C1 [BOL148] |  | do not activate |
| CCN(CC)CCc1c[nH]c2cc(F)ccc12 [Compound 6-F-DET, 6-F-DET] |  | do not activate |
